In experiment [1] the test system is VN/1203. It is filed as in vivo, Balb/C mice. The following applies: suboptimal dose vaccine.
Experiment [2] has as its system PR/8 virus. Description: Sedimentation density profiles (density gradient ultracentrifugation) of peptide-treated virus. Further details: species or system A/PuertoRico/8/34 (PR/8, H1N1). The settings on record: EB peptide-treated samples (10 μM, 30 μM).
Experiment [3] concerns PR/8 virus. Nature of the experiment: Splenocyte IFN-γ ELISpot assay, PR/8 vaccine (Example 8). It is filed as in vivo, Balb/C mice. The settings on record: day 15 post-vaccination; inactivated PR/8; EB 50 μM or 200 μM.
The test system of experiment [4] is VN/1203. Description: Virus specific IgG ELISA after vaccination with inactivated VN/1203 (Example 3). It is filed as in vivo, Balb/C mice. The following applies: 28 days post-vaccination; EB at all concentrations (10 μM, 50 μM, 0.5 mM, 1 mM); i.m., boost day 15.
The next experiment relates to H5N1 influenza virus. The following applies: mouse, in vivo; cited from earlier work.
The subject of the next experiment is influenza virus. The settings on record: cited from earlier work.
The subject of experiment [5] is PR/8 virus. It is filed as in vivo, Balb/C mice. The following applies: suboptimal dose PR/8 vaccine.
In experiment [6] the test system is VN/1203. It is filed as in vivo, Balb/C mice.
A further experiment deals with influenza viruses. The settings on record: in vitro; cited from earlier work.
Experiment [7] deals with PR/8 virus. Nature of the experiment: Influenza-specific neutralizing antibodies in sera, suboptimal dose PR/8 vaccine (Example 6). It is filed as in vivo, Balb/C mice. The settings on record: day 15 post-vaccination; pooled serum; values <40 negative.
Experiment [8] relates to VN/1203 virus. Description: Microneutralization assay of sera, suboptimal dose VN/1203 vaccine (Example 5). On the set-up: species or system Balb/C mice. The settings on record: mouse, in vivo.
Another experiment relates to RAW 264.7 macrophages. Description: Association of FITC-labeled virus with macrophages by flow cytometry. The settings on record: virus treated with 10 μM EB; compared to 0 μM. It is filed as cell-based.
The subject of experiment [9] is VN/1203 virus. It is filed as in vivo, Balb/C mice. The settings on record: day 15 and 28 post-vaccination; inactivated VN/1203; EB 200 μM.
Experiment [10] concerns VN/1203. Nature of the experiment: Influenza-specific total IgG, IgG1, IgG2 ELISA after suboptimal dose VN/1203 vaccine (Example 5). Further details: species or system Balb/C mice. The settings on record: mouse, in vivo.

Read-outs that look alike come from different tables or passages of the source. Bounds are passed on as bounds.

With “RRKKLPAVLLALLAP [SEQ ID NO: 4 peptide, derivative of EB retaining RRKK tag with 5 amino acid residues removed from the N-terminus]”, in the experiment on VN/1203 [1] (peptide 200 μM), the weight loss entry is recorded as “around 20%”. In addition, the “score for clinical signs of infection (0-3)” value with VN/1203 [1] (peptide 200 μM, with boost) is reported as 2.
Regarding RRKKAAVALLPAVLLALLAP [EB], the weight loss entry in the experiment on VN/1203 [1] (200 μM EB, no boost) is listed as “little to no weight loss”; in the experiment with VN/1203 [1] (200 μM EB, with boost), “little to no weight loss”. The “score for clinical signs of infection (0-3)” value is recorded as 1 in the experiment with VN/1203 [1] (200 μM EB, without boost) and 0 with VN/1203 [1] (peptide 200 μM, with boost). In addition, the survival rate in the experiment on VN/1203 [1] (EB 50 μM) is given as > 60%; with PR/8 virus [5] (EB 50 μM), 100%; with PR/8 virus [5] (EB 200 μM), 100%. In addition, in the experiment on PR/8 virus [2], the “HA activity as compared to virus alone” value is on record as “considerably lower”. Further, the “IFN-γ levels (IFN-γ secreting splenocytes)” value with PR/8 virus [3] and in the experiment with VN/1203 virus [9] was “increases” in each case. For the same sequence, the “virus specific IgG titers compared to inactivated virus alone or alum adjuvanated vaccine” value in the experiment on VN/1203 [4] was “increased”. The “clinical signs of H5N1 influenza virus infection” value in the experiment on H5N1 influenza virus is “prevented clinical signs”. In addition, in the experiment with H5N1 influenza virus, the survival result is “increased survival”. For the same sequence, in the experiment on influenza virus, the “influenza virus attachment to cells” value is “inhibited”. In addition, in the experiment on VN/1203 [6] ([…], EB 10 μM, 50 μM, 0.5 mM or 1 mM, alum 0.5 mg/ml), the “weight change compared to day 0 of challenge” value is on record as “weight increase”. For the same sequence, the “infectious virus in lungs (TCID50 on MDCK cells)” value is “no detectable infectious virus” in the experiment with VN/1203 [6] ([…], VN/1203 pretreated with 50 μM or greater amounts of EB); “no detectable infectious virus” with VN/1203 [6] (day 10, any of the groups vaccinated with inactivated VN/1203 and EB). The “concentrations at which EB inhibits virus replication” value in the experiment on influenza viruses is ≥ 10 µM. For the same sequence, the “influenza-specific neutralizing antibody titers” value in the experiment with PR/8 virus [7] was “negative”. The “virus neutralizing antibody titers (microneutralization)” value with VN/1203 virus [8] is on record as “negative”. Moreover, the “shift in macrophage association peak of FITC-PR/8” value in the experiment with RAW 264.7 macrophages is reported as “minimal shift”. Besides, in the experiment on VN/1203 [10], the “total IgG, IgG1, and IgG2 levels versus suboptimal dose of VN/1203 alone” value is reported as “the same”.

(Values after patent US9198965B2 (priority 2008, dated 2015).)
